The values that follow come from patent US6211203A, “Benzofuran-4-carboxamides” (Byk Gulden Lomberg Chemische Fabrik GmbH, priority 1996, dated 2001).

The structures appear in SMILES notation.

The test concerns PDE IV. As to the kind of experiment: Inhibition of PDE IV activity. Type of test: biochemical. The settings on record: Inhibition of PDE IV activity (Table A).
For the molecule `COc1ccc(C(=O)Nc2c(Cl)cncc2Cl)c2cc(C)oc12` [Compound 1, N-(3,5-Dichloropyrid-4-yl)-7-methoxy-2-methylbenzofuran-4-carboxamide], the “-log IC50” value is given as 8.42.
Turning to `COc1ccc(C(=O)Nc2c(Cl)cncc2Cl)c2cc(C(C)C)oc12` [Compound 2, N-(3,5-Dichloropyrid-4-yl)-7-methoxy-2-(1-methylethyl)benzofuran-4-carboxamide], the “-log IC50” value is 9.28.
Under `COc1ccc(C(=O)Nc2c(Cl)cncc2Cl)c2cc(C(C)C)oc12` [Compound 3, N-(3,5-Dichloropyrid-4-yl)-7-methoxy-2-(1-methylethyl)benzofuran-4-carboxamide] stands 8.18.
As for `CC(C)c1cc2c(C(=O)Nc3c(Cl)cncc3Cl)ccc(OC(F)F)c2o1` [Compound 4, N-(3,5-Dichloropyrid-4-yl)-7-difluoromethoxy-2-(1-methylethyl)benzofuran-4-carboxamide], the “-log IC50” value was found to be 9.72.
Consider `COc1ccc(C(=O)Nc2c(Cl)cncc2Cl)c2cc(C3CCCC3)oc12` [Compound 5, N-(3,5-Dichloropyrid-4-yl)-2-cyclopentyl-7-methoxybenzofuran-4-carboxamide], for which the “-log IC50” value was found to be 8.80.
